Test results from patent EP2975033A1, “Improved cysteine-protease inhibitors” (Universitat Jaume I, priority 2014, dated 2016).
≈ marks a conversion by molar mass, not a printed value. Read-outs that look alike come from different tables or passages of the source.

Legend:
[1] = tested on: L. donovani strain MHOM/ET/67/L82; assay: Activity against L. donovani axenic amastigotes (Alamar Blue); format: cell-based; details: Leishmania donovani
Method: (§1) For all the susceptibility assays with parasites and cells, each drug was tested in duplicate and each assay was repeated at least once. • a. Activity against Trypanosoma brucei rhodesiense STIB900. This stock was isolated in 1982 from a human patient in Tanzania and after several mouse passages cloned and adapted to axenic culture conditions (Baltz et al 1985) Minimum Essential Medium (50 µl) supplemented with 25 mM HEPES, 1g/l additional glucose, 1% MEM non-essential amino acids (100x), 0.2 mM 2-mercaptoethanol, 1 mM Na-pyruvate and 15% heat inactivated horse serum was added to each well of a 96-well microtiter plate. Serial drug dilutions of eleven 3-fold dilution steps covering a range from 100 to 0.002 µg/ml were prepared. Then 4x10^3 bloodstream forms of T. b. rhodesiense STIB 900 in 50 µl was added to each well and the plate incubated at 37 °C under a 5 % CO2 atmosphere for 70 h. 10 µl Alamar Blue (resazurin, 12.5 mg in 100 ml double-distilled water) was then added to each well and incubation continued for a further 2-4 h (Raz et al 1997). Then the plates were read with a Spectramax Gemini XS microplate fluorometer (Molecular Devices Cooperation, Sunnyvale, CA, USA) using an excitation wave length of 536 nm and an emission wave length of 588 nm. The IC50 values were calculated by linear regression (Huber 1993) from the sigmoidal dose inhibition curves using SoftmaxPro software (Molecular Devices Cooperation, Sunnyvale, CA, USA). Melarsoprol (Arsobal Sanofi-Aventis, received from WHO) is used as control. • b. Activity against T. cruzi. Rat skeletal myoblasts (L-6 cells) were seeded in 96-well microtitre plates at 2000 cells/well in 100 µL RPMI 1640 medium with 10% FBS and 2 mM I-glutamine. After 24 h the medium was removed and replaced by 100 µl per well containing 5000 trypomastigote forms of T. cruzi Tulahuen strain C2C4 containing the β-galactosidase (Lac Z) gene (Buckner et al. 1996). After 48 h the medium was removed from the wells and replaced by 100 µl fresh medium with or without a serial drug dilution of eleven 3-fold dilution steps covering a range from 100 to 0.002 µg/ml. After 96 h of incubation the plates were inspected under an inverted microscope to assure growth of the controls and sterility. Then the substrate CPRG/Nonidet (50 µl) was added to all wells. A color reaction developed within 2-6 h and could be read photometrically at 540 nm. Data were analyzed with the graphic programme Softmax Pro (Molecular Devices), which calculated IC50 values by linear regression (Huber 1993) from the sigmoidal dose inhibition curves. […] Activity against L. donovani axenic amastigotes. Amastigotes of L. donovani strain MHOM/ET/67/L82 were grown in axenic culture at 37 °C in SM medium (Cunnigham et al. 1977) at pH 5.4 supplemented with 10% heat-inactivated fetal bovine serum under an atmosphere of 5% CO2 in air. One hundred microlitres of culture medium with 10^5 amastigotes from axenic culture with or without a serial drug dilution were seeded in 96-well microtitre plates. Serial drug dilutions of eleven 3-fold dilution steps covering a range from 90 to 0.002 µg/ml were prepared. After 70 h of incubation the plates were inspected under an inverted microscope to assure growth of the controls and sterile conditions. 10 µl of Alamar Blue (12.5 mg resazurin dissolved in 100 ml distilled water) (Mikus and Steverdig. 2000) were then added to each well and the plates incubated for another 2 h. Then the plates were read with a Spectramax Gemini XS microplate fluorometer (Molecular Devices Cooperation, Sunnyvale, CA, USA) using an excitation wave length of 536 nm and an emission wave length of 588 nm. Data were analyzed using the software Softmax Pro (Molecular Devices Cooperation, Sunnyvale, CA, USA). Decrease of fluorescence (= inhibition) was expressed as percentage of the fluorescence of control cultures and plotted against the drug concentrations. From the sigmoidal inhibition curves the IC50 values were calculated. • d.

[2] = tested on: P. falciparum NF54 strain; assay: Activity against P. falciparum, 3H-hypoxanthine incorporation assay; format: cell-based; details: Plasmodium falciparum, NF54
[3] = tested on: T. cruzi Tulahuen strain C2C4; assay: Activity against T. cruzi in L-6 cells (beta-galactosidase, CPRG); format: cell-based; details: Trypanosoma cruzi, TULAHUEN, L6
Method: as §1

[4] = tested on: Trypanosoma brucei rhodesiense STIB900; assay: Activity against Trypanosoma brucei rhodesiense STIB900 (Alamar Blue); format: cell-based; details: Trypanosoma brucei
Method: as §1

Rhodesain = biological target: T1, Rhodesain (Trypanosoma brucei rhodesiense, UniProt Q95PM0); assay: Protease assay, fluorogenic substrate Z-Phe-Arg-AMC: Rhodesain; format: biochemical
T1 construct: made in house
Description: (§2) 2.1.1. Protease Assays as shown in tables 1 and 2: Cathepsin L (human), Cathepsin B (human), Rhodesain (Trypanosoma brucei rhodesiense), Falcipain 2 (Plasmodium falciparum)
(§3) Enzyme assays used to identify inhibitors of the target cysteine proteases. The effect is detected measuring fluorescence increase due to hydrolysis of fluorogenic substrates by the target enzymes in absence and presence of potential inhibitors.
(§4) • a. Proteins (enzymes): • Cathepsin L (human liver) Calbiochem • Cathepsin B (human liver) Calbiochem • Rhodesain: recombinantly expressed according to ref.: Caffrey, C. R.; Hansell, E.; Lucas, K. D.; Brinen, L. S.; Hernandez, A. A.; Cheng, J.; Gwaltney, S. L., II; Roush, W. R.; Stierhof, Y. D.; Bogyo, M.; Steverding, D.; McKerrow, J. H. Active site mapping, biochemical properties and subcellular localization of rhodesain, the major cysteine protease of Trypanosoma • Falcipain 2: recombinantly expressed according to ref.: Pandey, K. C.; Wang, S. X.; Sijwali, P. S.; Lau, A. L.; McKerrow, J. H.; Rosenthal, P. J. The Plasmodium falciparum cysteine protease falcipain-2 captures its substrate, hemoglobin, via a unique motif. Proc. Natl. Acad. Sci. U.S.A. 2005, 102, 9138-9143. • b. Buffers: • Cathepsin B: 50 mM Tris-Puffer pH 6.5 mit 2 mM DTT, 5 mM EDTA, 200 mM NaCl, 0.005% Brij35 • Cathepsin L: 50 mM Tris-Puffer pH 6.5 mit 2 mM DTT, 5 mM EDTA, 200 mM NaCl, 0.005% Brij35 • Rhodesain: 50 mM Acetat-Puffer pH 5.5 mit 5 mM DTT, 5 mM EDTA, 200 mM NaCl, 0.005% Brij35 • Falcipain 2: 50 mM Acetat-Puffer pH 5.5 mit 5 mM DTT, 5 mM EDTA, 200 mM NaCl, 0.005% Brij35 • c. Substrates: • Cathepsin L: 6,25 µM Z-Phe-Arg-7-amino-4-methylcumarin, HCl von Bachem, Ex 380 nm, Em 460 nm • Cathepsin B: 100 µM Z-Phe-Arg-7-amino-4-methylcumarin, HCl von Bachem, Ex 380 nm, Em 460 nm • Rhodesain: 10µM Z-Phe-Arg-7-amino-4-methylcumarin, HCl von Bachem, Ex 380 nm, Em 460 nm • Falcipain 2: 25µM Z-Phe-Arg-7-amino-4-methylcumarin, HCl von Bachem, Ex 380 nm, Em 460 nm • Reference substance(s)/positive control(s): E64 • d. Solvent for inhibitors and substrates: DMSO 99,5% (GC) DC4540, Sigma • e. Measurement device: Tecan Fluorescence spectrophotometer infinite F200 Pro • f. Well plates: 96 well plates, Lia-Plate White, Greiner bio-one, flat bottom, high binding • g. Methodology: Substrates and inhibitor stock solutions are prepared in DMSO and diluted with the respective assay buffer (final DMSO concentration: […]). Enzyme stock solutions are diluted with assay buffer to yield a fluorescence increase of dF/min ≈ _20. Total volume: 200 µL (180 µL of assay buffer, 5 µL of enzyme solution, 10 µL of DMSO or inhibitor solution, 5 µL of substrate solution). Assays are started by the addition of substrate solution. Fluorescence increase is detected over a period of 10 - 30 min, depending on time dependent (30 min) or non-time dependent (10 min) inhibition. • h. Temp: 25 °C • i. DATA-[…] • Software: Grafit 5.013 • Ki values are calculated from IC50 values (obtained by the 4-parameter IC50 equation) using the Chen-Prusoff equation: Ki=IC50/(1 + [S]/Km)
(§5) In vitro inhibition of cysteine-proteases cruzain (CR) (Trypanosoma cruzi (T. cruzi)), rhodesain (RD) (T. brucei), cathepsin B (CB), falcipain (FP2) (Plasmodium falciparum) and cathepsin L (CL) was assessed by quantification of the resulting fluorescence emission of the proteolytic breakdown of synthetic compound Z-Phe-Arg-AMC (Bachem). The results of this determination are shown in tables 1 and 2 illustrated above.

Cathepsin B (human) = biological target: T2, Cathepsin B (human) (Homo sapiens, UniProt P07858); assay: Protease assay, fluorogenic substrate Z-Phe-Arg-AMC: Cathepsin B; format: biochemical; details: CB=CathepsinB
T2 construct: Cathepsin B (human liver) Calbiochem; purchased Calbiochem; host or cells: human liver (tissue-derived)
Description: as §2, §3, §4, §5

Falcipain 2 = biological target: T3, Falcipain 2 (Plasmodium falciparum, UniProt Q8I6U4); assay: Protease assay, fluorogenic substrate Z-Phe-Arg-AMC: Falcipain 2; format: biochemical; details: FP2=Falcipain2
T3 construct: made in house
Description: as §2, §3, §4, §5

cruzain (CR) = cruzain (CR) (Trypanosoma cruzi, UniProt P25779); assay: In vitro inhibition of cruzain, fluorescence of Z-Phe-Arg-AMC breakdown; format: biochemical
Method: as §3, §5

Cathepsin L (human) = biological target: T4, Cathepsin L (human) (Homo sapiens, UniProt P07711); assay: Protease assay, fluorogenic substrate Z-Phe-Arg-AMC: Cathepsin L; format: biochemical; details: CL=CathepsinL
T4 construct: Cathepsin L (human liver) Calbiochem; purchased Calbiochem; host or cells: human liver (tissue-derived)
Description: as §2, §3, §4, §5

[5] = mean of replicates, read-out: L.don. ax am IC50 mean
[6] = replicate 1, axenic amastigotes, pH 5.4, 70 h, read-out: L.don. ax am IC50 repl1
[7] = mean of replicates, read-out: P.falc NF54 IC50 mean
[8] = replicate 1, erythrocytic stages, read-out: P.falc NF54 IC50 repl1
[9] = replicate 2, erythrocytic stages, read-out: P.falc NF54 IC50 repl2
[10] = mean of replicates, read-out: T.cruzi. IC50 mean
[11] = replicate 1, L-6 cells, 96 h, read-out: T.cruzi. IC50 repl1
[12] = replicate 2, L-6 cells, 96 h, read-out: T.cruzi. IC50 repl2
[13] = 70 h, replicate 1, bloodstream forms, 70 h, read-out: T.b.rhod. IC50 repl1
[14] = 70 h, replicate 2, bloodstream forms, 70 h, read-out: T.b.rhod. IC50 repl2
[15] = mean of replicates, read-out: T.b.rhod. IC50 mean

T3 sequence (Q8I6U4 244-484): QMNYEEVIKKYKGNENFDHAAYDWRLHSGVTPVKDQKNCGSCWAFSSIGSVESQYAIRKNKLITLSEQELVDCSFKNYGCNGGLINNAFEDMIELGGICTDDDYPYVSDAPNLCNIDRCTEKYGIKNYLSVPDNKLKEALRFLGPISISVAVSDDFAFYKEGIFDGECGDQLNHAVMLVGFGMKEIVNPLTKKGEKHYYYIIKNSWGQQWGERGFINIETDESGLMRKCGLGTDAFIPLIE
Chain of cruzain (CR) (P25779 123-467): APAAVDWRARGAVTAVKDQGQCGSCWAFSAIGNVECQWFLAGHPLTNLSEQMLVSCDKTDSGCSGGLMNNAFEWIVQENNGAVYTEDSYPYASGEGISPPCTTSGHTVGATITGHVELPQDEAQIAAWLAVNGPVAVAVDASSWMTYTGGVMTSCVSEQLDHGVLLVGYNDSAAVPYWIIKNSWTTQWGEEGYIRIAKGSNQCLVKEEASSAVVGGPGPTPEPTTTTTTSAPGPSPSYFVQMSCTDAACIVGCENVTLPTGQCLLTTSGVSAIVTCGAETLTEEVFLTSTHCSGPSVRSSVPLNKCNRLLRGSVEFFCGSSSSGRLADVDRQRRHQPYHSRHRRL
T4 sequence (P07711 114-333): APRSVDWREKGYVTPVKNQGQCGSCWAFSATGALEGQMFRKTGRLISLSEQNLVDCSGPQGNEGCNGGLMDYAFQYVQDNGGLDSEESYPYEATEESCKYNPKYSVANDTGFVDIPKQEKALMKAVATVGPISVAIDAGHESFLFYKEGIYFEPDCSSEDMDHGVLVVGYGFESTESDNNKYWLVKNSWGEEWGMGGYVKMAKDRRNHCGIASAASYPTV
T1 sequence (Q95PM0 entry or part of it): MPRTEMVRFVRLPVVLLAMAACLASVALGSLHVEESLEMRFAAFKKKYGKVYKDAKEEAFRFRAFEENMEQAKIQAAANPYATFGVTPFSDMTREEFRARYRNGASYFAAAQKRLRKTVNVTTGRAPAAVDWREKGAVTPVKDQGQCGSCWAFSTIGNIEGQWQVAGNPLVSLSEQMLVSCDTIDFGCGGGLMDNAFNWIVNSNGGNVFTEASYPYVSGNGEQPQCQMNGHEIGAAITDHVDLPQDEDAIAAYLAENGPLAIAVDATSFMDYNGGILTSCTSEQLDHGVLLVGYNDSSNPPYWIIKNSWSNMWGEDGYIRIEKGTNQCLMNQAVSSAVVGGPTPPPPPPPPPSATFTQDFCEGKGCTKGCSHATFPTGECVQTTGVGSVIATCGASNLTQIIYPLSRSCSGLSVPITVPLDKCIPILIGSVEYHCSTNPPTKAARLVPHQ

## CCOC(=O)/C=C/C(=O)[C@H](CCc1ccccc1)NC(=O)[C@H](CC(C)C)NC(=O)OCc1ccccc1 [FGA-47]
[1]; [5]
  IC50: 0.048 µg/mL (≈ 0.0944 µM)
[1]; [6]
  IC50: 0.044 µg/mL (≈ 0.0865 µM)
[1]; replicate 2, axenic amastigotes, pH 5.4, 70 h, read-out: L.don. ax am IC50 repl2
  IC50: 0.052 µg/mL (≈ 0.102 µM)
[2]; [7]
  IC50: 0.821 µg/mL (≈ 1.61 µM)
[2]; [8]
  IC50: 0.921 µg/mL (≈ 1.81 µM)
[2]; [9]
  IC50: 0.72 µg/mL (≈ 1.42 µM)
[3]; [10]
  IC50: 3.63 µg/mL (≈ 7.14 µM)
[3]; [11]
  IC50: 5.17 µg/mL (≈ 10.2 µM)
[3]; [12]
  IC50: 2.09 µg/mL (≈ 4.11 µM)
[4]; [13]
  IC50: 1.68 µg/mL (≈ 3.3 µM)
[4]; [14]
  IC50: 0.675 µg/mL (≈ 1.33 µM)
[4]; [15]
  IC50: 1.18 µg/mL (≈ 2.32 µM)

## CCOC(=O)/C=C/C(=O)[C@H](CCc1ccccc1)NC(=O)[C@H](Cc1ccccc1)NC(=O)OCc1ccccc1 [FGA-44]
[1]; [5]
  IC50: 6.87 µg/mL (≈ 12.7 µM)
[1]; [6]
  IC50: 6.87 µg/mL (≈ 12.7 µM)
[2]; [7]
  IC50: 6.82 µg/mL (≈ 12.6 µM)
[2]; [8]
  IC50: 7.19 µg/mL (≈ 13.3 µM)
[2]; [9]
  IC50: 6.44 µg/mL (≈ 11.9 µM)
[3]; [10]
  IC50: 10.9 µg/mL (≈ 20.1 µM)
[3]; [11]
  IC50: 7.74 µg/mL (≈ 14.3 µM)
[3]; [12]
  IC50: 14.1 µg/mL (≈ 26 µM)
[4]; [13]
  IC50: 0.446 µg/mL (≈ 0.822 µM)
[4]; [14]
  IC50: 0.564 µg/mL (≈ 1.04 µM)
[4]; [15]
  IC50: 0.505 µg/mL (≈ 0.931 µM)

## CCOC(=O)/C=C/C(=O)[C@H](C)NC(=O)[C@H](CC(C)C)NC(=O)OCc1ccccc1
Rhodesain
  RD(K2nd(M-1s-1)): 14207 M⁻¹ s⁻¹
Rhodesain; RD=Rhodesain, 25 °C, pH 5.5, 10µM substrate
  IC50: 0.8 µM
Cathepsin B (human)
  CB(K2nd(M-1s-1)): 85470 M⁻¹ s⁻¹
Cathepsin B (human); 25 °C, pH 6.5, 100 µM substrate, read-out: CBIC50micM
  IC50: 0.07 µM
Falcipain 2
  FP2(K2nd(M-1s-1)): 12013 M⁻¹ s⁻¹
Falcipain 2; 25 °C, pH 5.5, 25µM substrate
  IC50: 1.18 µM
Cruzain (CR)
  CR(K2nd(M-1s-1)): 14412 M⁻¹ s⁻¹
  IC50: 0.63 µM
Cathepsin L (human)
  CL(K2nd(M-1s-1)): 9821 M⁻¹ s⁻¹
Cathepsin L (human); read-out: CL(IC50), 25 °C, pH 6.5, 6,25 µM substrate
  IC50: 0.55 µM
